Laboratory results from patent US12661410B2, “Compounds for targeted degradation of RET” (C4 Therapeutics, Inc., priority 2020, dated 2026).
Where a chain is given by its changes, count along the chain named. Read-outs that look alike come from different tables or passages of the source.

Assays:
RET(KD: 658-1114 G810R) = target: T1, RET(KD: 658-1114 G810R) (Homo sapiens, UniProt P07949, G810R); assay: HiBiT-Degradation, RET G810R degradation assay (Nano-Glo HiBiT Lytic), 293T.165 cells; format: cell-based; conditions: for Emax / DC50: 6.0 hours
T1 construct: 658-1114; expressed in transfected cells; host or cells: 293T.165 (293T cells, generated in-house)
T1 sequence (P07949 658-1114 G810R): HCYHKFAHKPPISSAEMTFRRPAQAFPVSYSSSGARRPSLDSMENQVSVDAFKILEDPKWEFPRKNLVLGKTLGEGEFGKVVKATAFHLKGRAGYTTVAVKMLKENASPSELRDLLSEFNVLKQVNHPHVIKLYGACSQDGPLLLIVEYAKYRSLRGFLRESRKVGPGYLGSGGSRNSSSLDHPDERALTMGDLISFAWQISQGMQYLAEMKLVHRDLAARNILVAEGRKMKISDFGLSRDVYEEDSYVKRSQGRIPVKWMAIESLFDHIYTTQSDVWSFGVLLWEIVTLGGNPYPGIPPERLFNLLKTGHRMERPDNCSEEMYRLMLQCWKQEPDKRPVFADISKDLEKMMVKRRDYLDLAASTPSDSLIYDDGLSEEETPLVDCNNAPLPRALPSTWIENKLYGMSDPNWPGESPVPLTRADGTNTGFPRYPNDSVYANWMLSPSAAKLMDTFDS
Method in brief: (§1)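 Cells were plated and dosed with an 11-point half-log series (highest 10 μM) in duplicate. After 6 hours they were lysed with HiBiT lytic detection reagent and luminescence measured. DC50 and percent remaining protein (Emax) came from the dose-response curves.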

RET (658-1114) = target: T2, RET (658-1114) (Homo sapiens, UniProt P07949); assay: HiBiT-Degradation, RET wild-type degradation assay (Nano-Glo HiBiT Lytic), 293T.144 cells; format: cell-based; conditions: for Emax / DC50: 6.0 hours
T2 construct: 658-1114; expressed in transfected cells; host or cells: 293T.144 (293T cells, generated in-house)
T2 sequence (P07949 658-1114): T1 sequence (P07949 658-1114 G810R) with R153G
Method in brief: as §1

[1] = % remaining protein, read-out: 293T.165 RET(KD: 658-1114 G810R) 6.0 hours (Emax)
[2] = half-maximal degradation concentration, read-out: 293T.165 RET(KD: 658-1114 G810R) 6.0 hours (DC50)
[3] = % remaining protein, read-out: 293T.144 RET (658-1114) 6.0 hours (Emax)
[4] = half-maximal degradation concentration, read-out: 293T.144 RET (658-1114) 6.0 hours (DC50)
[5] = RET G810R, read-out: HiBiT-Degradation 293T.165 RET(KD: 658-1114 G810R) 6.0 hours (DC50)
[6] = RET G810R, read-out: HiBiT-Degradation 293T.165 RET(KD: 658-1114 G810R) 6.0 hours (Emax)
[7] = RET wild-type, read-out: HiBiT-Degradation 293T.144 RET (658-1114) 6.0 hours (DC50)
[8] = RET wild-type, read-out: HiBiT-Degradation 293T.144 RET (658-1114) 6.0 hours (Emax)
[9] = HiBiT-Degradation, read-out: 293T.165 RET(KD: 658-1114 G810R) 6.0 hours (DC50)
[10] = HiBiT-Degradation, read-out: 293T.144 RET (658-1114) 6.0 hours (DC50)
[11] = HiBiT-Degradation, read-out: 293T.144 RET (658-1114) 6.0 hours (Emax)

Row | 293T.165 RET(KD: 658-1114 G810R) 6.0 hours (IP) [nM] (RET(KD: 658-1114 G810R)) | Emax (RET(KD: 658-1114 G810R); [1]) | DC50 (RET(KD: 658-1114 G810R); [2]) | 293T.144 RET (658-1114) 6.0 hours (IP) [nM] (RET (658-1114)) | Emax (RET (658-1114); [3]) | DC50 (RET (658-1114); [4]) | HiBiT-Degradation 293T.165 RET(KD: 658-1114 G810R) 6.0 hours (IP) [nM] (RET(KD: 658-1114 G810R); RET G810R) | DC50 (RET(KD: 658-1114 G810R); [5]) | Emax (RET(KD: 658-1114 G810R); [6]) | HiBiT-Degradation 293T.144 RET (658-1114) 6.0 hours (IP) [nM] (RET (658-1114); RET wild-type) | DC50 (RET (658-1114); [7]) | Emax (RET (658-1114); [8]) | 293T.165 RET(KD: 658-1114 G810R) 6.0 hours (Emax) (RET(KD: 658-1114 G810R); HiBiT-Degradation) | 293T.165 RET(KD: 658-1114 G810R) 6.0 hours (IP) [nM] (RET(KD: 658-1114 G810R); HiBiT-Degradation) | DC50 (RET(KD: 658-1114 G810R); [9]) | 293T.144 RET (658-1114) 6.0 hours (IP) [nM] (RET (658-1114); HiBiT-Degradation) | DC50 (RET (658-1114); [10]) | Emax (RET (658-1114); [11]) | Structure (SMILES)
1 | ++++ (<50 nM = ++++) | < 50% | < 0.1 µM | ++++ (<50 nM = ++++) | < 30% | < 0.05 µM | – | – | – | – | – | – | – | – | – | – | – | – | CCC1(c2ncccn2)CCN(c2ccc(-c3nc(-c4cnn([C@H]5CC[C@H](N6CCC(c7ccc(N[C@@H]8CCC(=O)NC8=O)cc7F)CC6)CC5)c4)cn4ncc(C#N)c34)cn2)CC1 (single isomer, unassigned) [Compound 140]
2 | – | < 50% | < 0.05 µM | – | – | – | ++++ (< 50 nM = ++++) | < 0.05 µM | < 50% | ++++ (< 50 nM = ++++) | < 0.05 µM | < 30% | – | – | – | – | – | – | CCC1(C(=O)NC(C)C)CCN(c2ccc(-c3nc(-c4cnn(C5CCN(C(=O)CC6(O)CCN(c7ccc(N[C@H]8CCC(=O)NC8=O)cc7F)CC6)CC5)c4)cn4ncc(C#N)c34)cn2)CC1 (single isomer, unassigned) [Compound 80]
3 | – | < 30% | < 0.1 µM | – | – | – | – | – | – | – | – | – | ++++ (< 30% = ++++) | ++++ (< 50 nM = ++++) | < 0.1 µM | ++++ (< 50 nM = ++++) | < 0.05 µM | < 30% | CCC1(C(=O)NC(C)C)CCN(c2ccc(-c3cc(-c4ccc(N5CCN(C(=O)CN6CCC(c7ccc8c(N9CCC(=O)NC9=O)nn(C)c8c7)CC6)CC5)cc4)cn4ncc(C#N)c34)cn2)CC1 [Compound 64, 1-[5-[3-cyano-6-[4-[4-[2-[4-[3-(2,4-dioxohexahydropyrimidin-1-yl)-1-methyl-indazol-6-yl]-1-piperidyl]acetyl]piperazin-1-yl]phenyl]pyrazolo[1,5-a]pyridin-4-yl]-2-pyridyl]-4-ethyl-N-isopropyl-piperidine-4-carboxamide]
4 | – | < 30% | < 0.1 µM | – | – | – | ++++ (< 50 nM = ++++) | < 0.1 µM | < 30% | ++++ (< 50 nM = ++++) | < 0.05 µM | < 30% | – | – | – | – | – | – | CC(C)NC(=O)C1(C)CCN(c2ccc(-c3cc(-c4cnn([C@H]5CC[C@H](CCN6CCC(c7ccc8c(N9CCC(=O)NC9=O)nn(C)c8c7)CC6)CC5)c4)cn4ncc(C#N)c34)cn2)CC1 [Compound 86, 1-[5-[3-cyano-6-[1-[(1r,4r)-4-[2-[4-[3-(2,4-dioxohexahydropyrimidin-1-yl)-1-methyl-indazol-6-1]-1-piperidyl]ethyl]cyclohexyl]pyrazol-4-yl]pyrazolo[1,5-a]pyridin-4-yl]-2-pyridyl]-N-isopropyl-4-methyl-piperidine-4-carboxamide]
5 | – | < 50% | < 0.05 µM | – | – | – | – | – | – | – | – | – | +++ (<50% = +++) | ++++ (< 50 nM = ++++) | < 0.05 µM | ++++ (< 50 nM = ++++) | < 0.05 µM | < 30% | COC1(C(=O)NC(C)C)CCN(c2ccc(-c3cc(-c4cnn(C5CCN(C(=O)CN6CCC(c7ccc(NC8CCC(=O)NC8=O)cc7F)CC6)CC5)c4)cn4ncc(C#N)c34)cn2)CC1 (stereo not shown) [Compound 6, 1-[5-[3-cyano-6-[1-[1-[2-[4-[4-[(2,6-dioxo-3-piperidyl)amino]-2-fluoro-phenyl]-1-piperidyl]acetyl]-4-piperidyl]pyrazol-4-yl]pyrazolo[1,5-a]pyridin-4-yl]-2-pyridyl]-N-isopropyl-4-methoxy-piperidine-4-carboxamide]
6 | – | < 50% | < 0.1 µM | – | – | – | – | – | – | – | – | – | +++ (<50% = +++) | ++++ (< 50 nM = ++++) | < 0.1 µM | ++++ (< 50 nM = ++++) | < 0.05 µM | < 30% | N#Cc1cnn2cc(-c3cnn(C4CCN(C(=O)CN5CCC(c6ccc(NC7CCC(=O)NC7=O)cc6F)CC5)CC4)c3)nc(-c3ccc(N4CCN(Cc5ccccn5)CC4)cc3)c12 (stereo not shown) [Compound 61, 6-[1-[1-[2-[4-[4-[(2,6-dioxo-3-piperidyl)amino]-2-fluoro-phenyl]-1-piperidyl]acetyl]-4-piperidyl]pyrazol-4-yl]-4-[4-[4-(2-pyridylmethyl)piperazin-1-yl]phenyl]pyrazolo[1,5-a]pyrazine-3-carbonitrile]
7 | ++++ (<50 nM = ++++) | < 30% | < 0.05 µM | ++++ (<50 nM = ++++) | < 30% | < 0.05 µM | – | – | – | – | – | – | – | – | – | – | – | – | CCC1(C(=O)NC(C)C)CCN(c2ccc(-c3nc(-c4cnn(C5CCN(CC6(O)CCN(c7ccc(NC8CCC(=O)NC8=O)cc7F)CC6)CC5)c4)cn4ncc(C#N)c34)cn2)CC1 (stereo not shown) [Compound 118, 1-(5-(3-cyano-6-(1-(1-((1-(4-((2,6-dioxopiperidin-3-yl)amino)-2-fluorophenyl)-4-hydroxypiperidin-4-yl)methyl)piperidin-4-yl)-1H-pyrazol-4-yl)pyrazolo[1,5-a]pyrazin-4-yl)pyridin-2-yl)-4-ethyl-N-isopropylpiperidine-4-carboxamide]
8 | +++ (<100 nM = +++) | < 30% | < 0.1 µM | ++++ (<50 nM = ++++) | < 30% | < 0.05 µM | – | – | – | – | – | – | – | – | – | – | – | – | COc1ccc(CC2(C(=O)NC(C)C)CCN(c3ccc(-c4nc(-c5cnn([C@H]6CC[C@H](N7CCN(c8cc(OC)c(NC9CCC(=O)NC9=O)cc8F)CC7)CC6)c5)cn5ncc(C#N)c45)cn3)CC2)nc1 (stereo partly shown) [Compound 216, 1-[5-[3-cyano-6-[1-[4-[4-[4-[(2,6-dioxo-3-piperidyl)amino]-2-fluoro-5-methoxy-phenyl]piperazin-1-yl]cyclohexyl]pyrazol-4-yl]pyrazolo[1,5-a]pyrazin-4-yl]-2-pyridyl]-N-isopropyl-4-[(5-methoxy-2-pyridyl)methyl]piperidine-4-carboxamide]

Row | Structure (SMILES) | 293T.165 RET(KD: 658-1114 G810R) 6.0 hours (IP) [nM] (RET(KD: 658-1114 G810R)) | Emax (RET(KD: 658-1114 G810R); [1]) | DC50 (RET(KD: 658-1114 G810R); [2]) | 293T.144 RET (658-1114) 6.0 hours (IP) [nM] (RET (658-1114)) | Emax (RET (658-1114); [3]) | DC50 (RET (658-1114); [4]) | HiBiT-Degradation 293T.165 RET(KD: 658-1114 G810R) 6.0 hours (IP) [nM] (RET(KD: 658-1114 G810R); RET G810R) | DC50 (RET(KD: 658-1114 G810R); [5]) | Emax (RET(KD: 658-1114 G810R); [6]) | HiBiT-Degradation 293T.144 RET (658-1114) 6.0 hours (IP) [nM] (RET (658-1114); RET wild-type) | DC50 (RET (658-1114); [7]) | Emax (RET (658-1114); [8]) | 293T.165 RET(KD: 658-1114 G810R) 6.0 hours (Emax) (RET(KD: 658-1114 G810R); HiBiT-Degradation) | 293T.165 RET(KD: 658-1114 G810R) 6.0 hours (IP) [nM] (RET(KD: 658-1114 G810R); HiBiT-Degradation) | DC50 (RET(KD: 658-1114 G810R); [9]) | 293T.144 RET (658-1114) 6.0 hours (IP) [nM] (RET (658-1114); HiBiT-Degradation) | DC50 (RET (658-1114); [10]) | Emax (RET (658-1114); [11])
9 | N#Cc1cnn2cc(-c3cnn([C@H]4CC[C@H](N5CCN(c6cc(F)c(NC7CCC(=O)NC7=O)cc6F)CC5)CC4)c3)nc(-c3ccc(N4CC5COCC(C4)N5Cc4ccccn4)nc3)c12 (relative stereo) [Compound 161, 6-[1-[4-[4-[4-[(2,6-dioxo-3-piperidyl)amino]-2,5-difluoro-phenyl]piperazin-1-yl]cyclohexyl]pyrazol-4-yl]-4-[6-[9-(2-pyridylmethyl)-3-oxa-7,9-diazabicyclo[3.3.1]nonan-7-yl]-3-pyridyl]pyrazolo[1,5-a]pyrazine-3-carbonitrile] | ++++ (<50 nM = ++++) | < 30% | < 0.05 µM | ++++ (<50 nM = ++++) | < 30% | < 0.05 µM | – | – | – | – | – | – | – | – | – | – | – | –
